Literature values as cited in patent publication USRE41289E1, “Ultrashort acting hypnotic barbiturates” (ARYx Therapeutics, Inc., priority 2000, dated 2010).

Details: in vivo

CN1C(=O)NC(=O)C(C)(C2=CCCCC2)C1=O (stereo not shown) [hexobarbital]
half-life of elimination: 2.7 to 7 h
